Assay results reported in patent US11478474B2, “2-(3′-(hydroxymethyl)-1-methyl-5-((5-(2-methyl-4-(oxetan-3-yl)piperazin-1-yl)pyridin-2-yl)amino)-6-oxo-1,6-dihydro-[3,4′-bipyridin]-2′-yl)-7,7-dimethyl-7,8-dihydro-2H-cyclopenta[4,5]pyrrolo[1,2-a]pyrazin-1(6H)-one as a BTK inhibitor” (HUTCHISON MEDIPHARMA LIMITED, priority 2020, dated 2022).

target: BTK recombinant protein (Homo sapiens (Human), UniProt Q06187); assay: Determination of biochemical BTK (Z'-LYTE kinase assay); details: not given
Description: Example 2 Determination of Biochemical BTK
(§1) 1. Reagents and Materials
BTK recombinant protein: Invitrogen, Cat #PV3363;
Z′-LYTE® kinase test kit-tyrosine 1 peptide: Invitrogen, Cat #PV3190;
Z′-LYTE® biochemical assay employs a fluorescence resonance energy transfer (FRET)—based, coupled-enzyme format and is based on the differential sensitivity of phosphorylated and non-phosphorylated peptides to proteolytic cleavage. Both ends of the short peptide substrate are labeled with two fluorescent groups to form a FRET paired combination. In the primary reaction (the Kinase Reaction), the kinase transfers the γ-phosphate of ATP to a single […] residue on the short peptide substrate. In the secondary reaction (the development reaction), the non-phosphorylated short peptides were recognized and cleaved by a site-specific protease (the development reagent). Phosphorylated short peptides can resist such cleavage. Cleavage of short peptides can disrupt the donor (such as coumarin) and receptor fluorophores (fluorescein) on the short peptides, while the phosphorylated short peptides can maintain FRET. The calculation method of the ratio is as follows, and the ratio of the respective emission signals generated by the donor fluorophores emitted (after excitation at 400 nm) to the receptors is calculated. Emission signal ratio=emitted light by coumarin (445 nm)/emitted light by fluorescein (520 nm). If the FRET short peptide is phosphorylated (such as no kinase inhibitor), the emitted light ratio will remain in a lower level. If the FRET short peptide is non-phosphorylated (such as kinase inhibitor), the emitted light ratio will be in a higher level. In this way, the inhibitory effects of different compound inhibitors on BTK kinase activity would be distinguished.
The experiment were carried out according to the instructions of the Z′-LYTE® kinase test kit-tyrosine 1 peptide. Reagent preparation: 1.33× kinase buffer: 5× kinase buffer was diluted with water to 1.33× kinase buffer; an enzyme solution: the kinase was dissolved in 1.33× kinase buffer with the final working concentration being 3.32 nM; a short peptide solution: a short peptide stock solution (1 mM dissolved in DMSO) was dissolved in 1.33× kinase buffer with the final working concentration being 2 μM; Z′-LYTE Tyr01 phosphorylated short peptide solution, 0.6 μl of stock solution (1 mM dissolved in DMSO) was dissolved in 149.4 μl of 1.33× kinase buffer; an ATP solution: an ATP stock solution (10 mM aqueous solution) was dissolved in 1.33× kinase buffer with the final working concentration being 32 μM; a color-developing solution: color-developing solution B was dissolved in color-developing buffer with the final working concentration being 1× color-developing solution; 4× compound preparation: the compound was diluted in 3-fold gradient concentration to finally obtain 4% DMSO aqueous solution containing different concentrations of the compound, with the final working concentration being 3000, 1000, 333.33, 111.11, 37.04, 12.35, 4.12, 1.37 nM, 8 concentration points in total.
Specific steps of the experiment: In the experiment, there were three control groups, each with 8 replicate wells, which were C1 100% inhibition group (no ATP), C2 0% inhibition group (with ATP), and C3 100% phosphorylation group, respectively. 2.5 μl of serially diluted compound was added to each well of a 384-well plate, with double replicate wells, and 4% DMSO solution was added to wells C1, C2, and C3. After that, except for wells C3, 2.5 μl of BTK enzyme solution was added to each remaining well, which was left to stand at 4° C. for 30 minutes. After that, except for wells C3, 2.5 μl of short peptide solution was added to each well, and 5 μl of phosphorylated short peptide solution was added to each of wells C3. 2.5 μl of 1.33× kinase buffer was added to each of wells C1 and C3, and 2.5 μl of ATP solution was added to each of the remaining wells. […]

BTK recombinant protein, sequence (Q06187 whole entry): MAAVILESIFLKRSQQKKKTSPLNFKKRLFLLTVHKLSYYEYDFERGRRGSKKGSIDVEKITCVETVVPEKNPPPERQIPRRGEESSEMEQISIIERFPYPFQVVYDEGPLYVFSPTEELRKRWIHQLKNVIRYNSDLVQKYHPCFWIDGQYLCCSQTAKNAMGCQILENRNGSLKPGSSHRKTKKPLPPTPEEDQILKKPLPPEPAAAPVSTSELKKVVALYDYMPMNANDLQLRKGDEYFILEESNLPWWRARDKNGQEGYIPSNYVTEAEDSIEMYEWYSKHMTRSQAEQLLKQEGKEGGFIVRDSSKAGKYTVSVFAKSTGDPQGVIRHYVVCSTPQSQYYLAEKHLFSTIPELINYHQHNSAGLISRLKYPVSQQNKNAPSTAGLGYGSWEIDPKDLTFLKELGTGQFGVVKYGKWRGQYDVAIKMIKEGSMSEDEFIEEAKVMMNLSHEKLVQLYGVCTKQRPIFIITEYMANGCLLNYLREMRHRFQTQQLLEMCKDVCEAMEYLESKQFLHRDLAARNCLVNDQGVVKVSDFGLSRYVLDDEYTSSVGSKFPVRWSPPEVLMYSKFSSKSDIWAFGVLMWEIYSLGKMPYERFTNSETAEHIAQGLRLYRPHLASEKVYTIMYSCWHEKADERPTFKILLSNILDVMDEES

Row | Compound | IC50 [nM]
1 | CC(O)c1c(-c2cc(Nc3ccc(N4CCN(C5COC5)C[C@@H]4C)cn3)c(=O)n(C)c2)ccnc1-n1ccn2c3c(cc2c1=O)CC(C)(C)C3 (mixture of isomers) [Compound 114] | > 3000
2 | Cn1cc(-c2ccnc(-n3ccn4c5c(cc4c3=O)CC(C)(C)C5)c2CO)cc(N)c1=O [Compound 98, 2-(5-amino-3′-(hydroxymethyl)-1-methyl-6-oxo-1,6-dihydro-[3,4′-bispyridin]-2′-yl)-7,7-dimethyl-7,8-dihydro-2H-cyclopenta[4,5]pyrrolo[1,2-a]pyrazin-1(6H)-one] | 1270
3 | C[C@H]1CN(C2COC2)CCN1c1ccc(Nc2cc(-c3ccnc(-n4ccn5c6c(cc5c4=O)CC(C)(C)C6)c3CO)cn(C)c2=O)c(F)c1 [Compound 103] | > 3000
4 | Cn1cc(-c2ccnc(-n3ccn4c5c(cc4c3=O)CC(C)(C)C5)c2CO)cc(NC(=O)c2ccccc2)c1=O [Compound 131] | 2010
5 | COc1ccc(Nc2cc(-c3ccnc(-n4ccn5c6c(cc5c4=O)CCC6)c3CO)cn(C)c2=O)nc1 [Compound 146] | 624
6 | Cc1ccc(Nc2cc(-c3ccnc(-n4ccn5c6c(cc5c4=O)CCC6)c3CO)cn(C)c2=O)nn1 [Compound 147] | 1560
7 | COC1CN(c2ccc(Nc3cc(-c4ccnc(-n5ccn6c7c(cc6c5=O)CCC7)c4CO)cn(C)c3=O)nc2)C1 [Compound 152] | 353
8 | COCc1c(-c2cc(N(C)c3ccc(N4CCN(C5COC5)C[C@@H]4C)cn3)c(=O)n(C)c2)ccnc1-n1ccn2c3c(cc2c1=O)CC(C)(C)C3 [Compound 223, (S)-2-(3′-(methoxymethyl)-1-methyl-5-(methyl(5-(2-methyl-4-(oxetan-3-yl)piperazin-1-yl)pyridin-2-yl)amino)-6-oxo-1,6-dihydro-[3,4′-bispyridin]-2′-yl)-7,7-dimethyl-7,8-dihydro-2H-cyclopenta[4,5]pyrrolo[1,2-a]pyrazin-1(6H)-one] | > 3000

Second part, the compound after the results:

Row | IC50 [nM] | Compound
9 | 8 | 2-(3′-(hydroxymethyl)-5-((5-(2-methoxyethyl)-4-methyl-4,5,6,7-tetrahydropyrazolo[1,5-a]pyrazin-2-yl) amido)-1-methyl-6-oxo-1,6-dihydro-[3,4′-bispyridin]-2′-yl)-7,7-dimethyl-7,8-dihydro-2H-cyclopenta[4,5]pyrrolo[1,2-d][1,2,4]triazin-1(6H)-one optically Pure [Compound 120]
10 | 3 | CC1Cc2cc3c(=O)n(-c4nccc(-c5cc(Nc6ccc(N7CCN(C8COC8)C[C@@H]7C)cn6)c(=O)n(C)c5)c4CO)ccn3c2C1 (mixture of isomers) [Compound 160]
11 | < 1 | [2H]C(O)c1c(-c2cc(Nc3ccc(N4CCN(C5COC5)C[C@@H]4C)cn3)c(=O)n(C([2H])([2H])[2H])c2)ccnc1-n1ccn2c3c(cc2c1=O)CC(C)(C)C3 (some centres unmarked) [Compound 38]
12 | 134 | CCC(=O)Nc1cc(-c2ccnc(-n3ccn4c5c(cc4c3=O)CC(C)(C)C5)c2CO)cn(C)c1=O [Compound 88]
13 | 316 | Cn1cc(-c2ccnc(-n3ccn4c5c(cc4c3=O)CC(C)(C)C5)c2CO)cc(NC(=O)C2CCC2)c1=O [Compound 130]
14 | 218 | CCn1cc(Nc2cc(-c3ccnc(-n4ccn5c6c(cc5c4=O)CCC6)c3CO)cn(C)c2=O)nn1 [Compound 138]
15 | 112 | COCCN1CCn2nc(Nc3cc(-c4ccnc(-n5ccn6c7c(cc6c5=O)CCC7)c4CO)cn(C)c3=O)cc2C1 [Compound 148]
16 | 117 | COCc1cc(Nc2cc(-c3ccnc(-n4ccn5c6c(cc5c4=O)CCC6)c3CO)cn(C)c2=O)nn1C [Compound 153]
17 | 122 | Cn1cc(-c2ccnc(-n3ccn4c5c(cc4c3=O)CCC5)c2CO)cc(Nc2cc3n(n2)CCOC3)c1=O [Compound 155]
18 | 194 | Cc1nn(-c2nccc(-c3cc(Nc4ccc(N5CCN(C6COC6)C[C@@H]5C)cn4)c(=O)n(C)c3)c2CO)c(=O)c2cc3c(n12)CCCC3 [Compound 158]
19 | 65 | COCCN1CCn2nc(Nc3cc(-c4ccnc(-n5cnn6c7c(cc6c5=O)CCCC7)c4CO)cn(C)c3=O)cc2C1 [Compound 194]
20 | 38 | C[C@H]1COCCN1c1cnc(Nc2cc(-c3ccnc(-n4ncn5c6c(cc5c4=O)CC(C)(C)C6)c3CO)cn(C)c2=O)nc1 [Compound 195]
21 | 66 | C[C@H]1CN(C2COC2)CCN1c1cnc(Nc2cc(-c3ccnc(-n4ncn5c6c(cc5c4=O)CC(C)(C)C6)c3CO)cn(C)c2=O)nc1 [Compound 197]
22 | 5 | C[C@@H]1CN(c2ccc(Nc3cc(-c4ccnc(-n5ccn6c7c(cc6c5=O)CC(C)(C)C7)c4CO)nn(C)c3=O)nc2)[C@@H](C)CN1C1COC1 [Compound 201]

target: phosphorylated BTK in Ramos cells (Homo sapiens (Human), UniProt Q06187); assay: Determination of phosphorylated BTK in Ramos cells (BTK phospho-Y223 HTRF); type: cell-based; details: anti-human IgM + hydrogen peroxide stimulation
Method: Determination of Phosphorylated BTK in Ramos Cells
as §1
Ramos cells: Ramos cells were purchased from American Standard Biological Collection Center ATCC Cell Bank, PRMI 1640 medium containing L-glutamine, 1.5 g/L of sodium bicarbonate, 2.383 g/L of HEPES solution, 0.11 g/L of sodium pyruvate and 4.5 g/L of glucose was used, added 10% fetal bovine serum FBS, and placed in a 5% CO2, 37° C. cell incubator for normal culture;
Phosphorylated BTK HTRF detection kit (BTK phospho-Y223 HTRF kit): Cisbio, Cat #63ADK017PEH;
Ramos cells were starved in PRMI 1640 medium with 1% FBS for 2 hours. The starved Ramos cells were diluted with Hank's balanced salt solution to 5.0×10^6 cells/ml, seeded in a 96-well plate with 20 μL/well (1.0×10^5 cells/well), and cultured in a 5% CO2, 37° C. cell incubator. After culturing for 1 hour, the test compound was diluted with Hank's balanced salt solution in 4-fold gradient to the corresponding concentrations, and then 5 μL/well of the diluted test compound with different concentrations (the final concentrations of the test compound were 3.0, 0.75, 0.188, 0.047, 0.012, 0.0029, 0.0007 and 0.00018 μM, and the final concentration of DMSO was 0.3%, double replicate wells) or 5 μL/well of control solution (1.5% DMSO, 8 replicate wells) were added to 20 μL/well of cell culture system, which incubated together for another hour, then 5 μL/well of a mixed solution of human immunoglobulin M (final concentration was 10 μg/mL) and hydrogen peroxide (final concentration was 3.3 mM) diluted with Hank's balanced salt solution was added to the treating wells for the test compound and the control treating wells for anti-human immunoglobulin M, and 5 μL/well of Hank's balanced salt solution was added to negative control treating wells. The plate was incubated in a 5% CO2, 37° C. cell incubator for 10 minutes.
10 μL/well of cell lysis buffer was added to each well of a 96-well plate, which was mixed well and lysed at room temperature for 30 minutes. 16 μL/well of lysis buffer was pipetted to a new 384 well plate, and then added 4 μL/well of phosphorylated BTK antibody, centrifuged (1000 rpm) for 1 minute, then shaken for 1 minute, further centrifuged (1000 rpm) for 1 minute, and finally placed in a constant temperature incubator overnight. Detection was performed on the next day.
The 384 well plate incubated overnight in the constant temperature incubator was taken out to detect the luminescence signal using the Envision microwell plate reader at the […]. The reading value at 665 nm/615 nm of each well multiplied by 104 was used as the signal value of each well.
The average signal value of the wells supplemented with the mixed solution of human immunoglobulin M (final concentration was 10 μg/mL) and hydrogen peroxide (final concentration was 3.3 mM) without the test compound was regarded as the high value, and the average signal value of the wells without immunoglobulin M stimulation and without the test compound was regarded as the low value. According to the signal value in each well, the inhibition ratio (%) of each concentration of compounds was calculated, and the 205 model in XL-Fit 5.3 software (ID Business Solutions Limited) was used to obtain an IC50 value.
The inhibition ratio is calculated as follows: inhibition ratio (%)=100%−{(treating well for the test compound−negative control treating well)/(control treating well for anti-human immunoglobulin M−negative control treating well)}×100%, wherein,
Treating well for the test compound: represents the signal value of Ramos cells treated with anti-human immunoglobulin M, hydrogen peroxide and the test compound.
Control treating well for anti-human immunoglobulin M: represents the signal value of Ramos cells treated with anti-human immunoglobulin M, hydrogen peroxide but without the test compound. […]

phosphorylated BTK in Ramos cells, sequence (Q06187 whole entry): as above

Row | Compound | IC50 [nM]
23 | COCC(C)n1cc(Nc2nc(-c3ccnc(-n4ccn5c6c(cc5c4=O)CC(C)(C)C6)c3CO)cn(C)c2=O)nn1 (centres unmarked) [Compound 42] | 341
24 | CN1CCn2nc(Nc3cc(-c4ccnc(-n5ccn6c7c(cc6c5=O)CC(C)(C)C7)c4CO)cn(C)c3=O)cc2C1 [Compound 69, 2-(3′-(hydroxymethyl)-1-methyl-5-((5-methyl-4,5,6,7-tetrahydropyrazolo[1,5-a]pyrazin-2-yl)amino)-6-oxo-1,6-dihydro-[3,4′-bispyridin]-2′-yl)-7,7-dimethyl-7,8-dihydro-2H-cyclopenta[4,5]pyrrolo[1,2-a]pyrazin-1(6H)-one] | 2

Further lines, results first:

Row | IC50 [nM] | Compound
25 | 5 | 2-(3′-(hydroxymethyl)-5-((5-(2-methoxyethyl)-4-methyl-4,5,6,7-tetrahydropyrazolo[1,5-a]pyrazin-2-yl) amido)-1-methyl-6-oxo-1,6-dihydro-[3,4′-bispyridin]-2′-yl)-7,7-dimethyl-7,8-dihydro-2H-cyclopenta[4,5]pyrrolo[1,2-d][1,2,4]triazin-1(6H)-one optically Pure [Compound 120]
26 | 11 | CC1Cc2cc3c(=O)n(-c4nccc(-c5cc(Nc6ccc(N7CCN(C8COC8)C[C@@H]7C)cn6)c(=O)n(C)c5)c4CO)ccn3c2C1 (mixture of isomers) [Compound 160]
